Experimental data from ChEMBL document CHEMBL4334526, “Synthesis of Peptoid-Based Class I-Selective Histone Deacetylase Inhibitors with Chemosensitizing Properties” (J Med Chem, 2019).
Calls of active or inactive are those of the source. No cut-off for these calls is given here.

Columns and labels:
[1] = target: T1, Class 1 histone deacetylase (Homo sapiens, UniProt Q13547+O15379+Q92769+Q9BY41); assay type: cell-based
[2] = target: T1, Class 1 histone deacetylase; details: CAL-27
Description: Inhibition of class 1 HDAC in human CAL27 cells assessed as potentiation of cisplatin-induced cytotoxicity by measuring combination index at 0.25 uM in presence of 1 uM cisplatin by MTT assay based Chou-Talalay analysis

[3] = target: T1, Class 1 histone deacetylase; details: CAL-27; remark: listed apart in the source
Description: Inhibition of class 1 HDAC in human CAL27 cells assessed as potentiation of cisplatin-induced cytotoxicity by measuring combination index at 0.1 uM in presence of 1 uM cisplatin by MTT assay based Chou-Talalay analysis

[4] = target: T1, Class 1 histone deacetylase
Description: Inhibition of class 1 HDAC in human Cal27CisR cells assessed as potentiation of cisplatin-induced cytotoxicity by measuring combination index at 0.10 uM in presence of 3.2 uM cisplatin by MTT assay based Chou-Talalay analysis

[5] = target: T1, Class 1 histone deacetylase; experiment: Inhibition of class 1 HDAC in human Cal27CisR cells assessed as potentiation of cisplatin-induced cytotoxicity by measuring fold reduction in cisplatin IC50 at 5 uM preincubated for 48 hrs followed by cisplatin addition and measured after 72 hrs by MTT assay relative to cisplatin IC50; assay type: cell-based
[6] = target: T1, Class 1 histone deacetylase; experiment: (§1) Inhibition of class 1 HDAC in human CAL27 cells assessed as potentiation of cisplatin-induced cytotoxicity by measuring combination index at 5 uM in presence of […] cisplatin by MTT assay based Chou-Talalay analysis; assay type: cell-based; details: CAL-27
[7] = target: T1, Class 1 histone deacetylase; experiment: as §1; assay type: cell-based; details: CAL-27; remark: listed apart in the source
[8] = target: T1, Class 1 histone deacetylase; experiment: Inhibition of class 1 HDAC in human Cal27CisR cells assessed as potentiation of cisplatin-induced cytotoxicity by measuring combination index at 5 uM in presence of […] cisplatin by MTT assay based Chou-Talalay analysis; assay type: cell-based
[9] = target: T1, Class 1 histone deacetylase; experiment: Inhibition of class 1 HDAC in human Cal27CisR cells assessed as potentiation of cisplatin-induced apoptosis by measuring increase in accumulation at sub-G1 phase at 5 uM preincubated for 48 hrs followed by cisplatin addition and measured after 24 hrs by propidium iodide staining based flow cytometry; assay type: cell-based
[10] = target: T2, Protein deacetylase HDAC6 (Homo sapiens) (UniProt Q9UBN7); experiment: Inhibition of HDAC6 in human Cal27CisR cells assessed as acetylation of alpha-tubulin at 5 uM measured after 24 hrs by immunoblot analysis; assay type: cell-based
T2 sequence (whole entry): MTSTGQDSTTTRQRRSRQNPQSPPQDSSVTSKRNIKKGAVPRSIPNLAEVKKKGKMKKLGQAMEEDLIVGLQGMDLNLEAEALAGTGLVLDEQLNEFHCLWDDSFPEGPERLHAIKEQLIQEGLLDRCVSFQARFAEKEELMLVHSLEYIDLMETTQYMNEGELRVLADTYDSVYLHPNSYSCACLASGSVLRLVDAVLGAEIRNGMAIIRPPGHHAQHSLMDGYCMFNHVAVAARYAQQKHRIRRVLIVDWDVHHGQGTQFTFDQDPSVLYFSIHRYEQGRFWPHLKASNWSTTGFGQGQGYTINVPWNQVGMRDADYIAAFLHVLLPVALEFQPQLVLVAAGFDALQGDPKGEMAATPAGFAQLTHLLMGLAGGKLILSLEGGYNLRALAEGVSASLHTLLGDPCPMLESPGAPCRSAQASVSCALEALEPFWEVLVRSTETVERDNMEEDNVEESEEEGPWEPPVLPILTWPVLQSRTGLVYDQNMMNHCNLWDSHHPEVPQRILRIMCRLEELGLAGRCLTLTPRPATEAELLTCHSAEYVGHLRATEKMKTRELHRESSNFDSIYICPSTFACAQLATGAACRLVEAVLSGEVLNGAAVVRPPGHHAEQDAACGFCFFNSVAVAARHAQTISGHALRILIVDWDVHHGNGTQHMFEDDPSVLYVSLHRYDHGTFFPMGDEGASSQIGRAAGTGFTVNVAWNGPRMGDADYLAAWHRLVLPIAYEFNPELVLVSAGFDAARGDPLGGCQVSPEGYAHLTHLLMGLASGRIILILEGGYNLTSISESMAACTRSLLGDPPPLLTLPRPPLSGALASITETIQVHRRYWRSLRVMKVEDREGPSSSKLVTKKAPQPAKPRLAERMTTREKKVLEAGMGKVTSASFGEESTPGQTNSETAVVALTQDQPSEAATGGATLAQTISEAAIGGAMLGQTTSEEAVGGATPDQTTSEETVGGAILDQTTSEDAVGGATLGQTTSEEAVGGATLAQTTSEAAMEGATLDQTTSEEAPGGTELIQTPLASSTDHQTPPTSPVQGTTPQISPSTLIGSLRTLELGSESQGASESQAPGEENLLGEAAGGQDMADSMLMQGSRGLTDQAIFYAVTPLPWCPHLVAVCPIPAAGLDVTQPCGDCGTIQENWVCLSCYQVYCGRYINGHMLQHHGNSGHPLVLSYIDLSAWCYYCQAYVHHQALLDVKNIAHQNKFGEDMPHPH

[11] = target: T1, Class 1 histone deacetylase; experiment: Inhibition of class 1 HDAC in human Cal27CisR cells assessed as increase in histone H3 acetylation at 5 uM measured after 24 hrs by immunoblot analysis; assay type: cell-based
Histone deacetylase 2 = Histone deacetylase 2 (Homo sapiens, UniProt Q92769); experiment: Inhibition of recombinant human full length C-terminal FLAG-tagged HDAC2 expressed in baculovirus infected Sf9 insect cells at 3.33 uM using Boc-Lys(epsilon-acetyl)-AMC as substrate incubated for 90 mins by fluorescence assay relative to control
A2780 = experiment: Cytotoxicity against human A2780 cells assessed as reduction in cell survival up to 100 uM measured after 72 hrs by MTT assay; assay type: functional, cell-based
[12] = target: T1, Class 1 histone deacetylase; experiment: Inhibition of class 1 HDAC in human CAL27 cells assessed as potentiation of cisplatin-induced apoptosis by measuring increase in accumulation at sub-G1 phase at […] preincubated for 48 hrs followed by cisplatin addition and measured after 24 hrs by propidium iodide staining based flow cytometry; assay type: cell-based; details: CAL-27
[13] = target: T1, Class 1 histone deacetylase; experiment: Inhibition of class 1 HDAC in human Cal27CisR cells assessed as potentiation of cisplatin-induced apoptosis by measuring increase in accumulation at sub-G1 phase at […] preincubated for 48 hrs followed by cisplatin addition and measured after 24 hrs by propidium iodide staining based flow cytometry; assay type: cell-based
CAL-27 = experiment: Induction of apoptosis in human CAL27 cells assessed as caspase-3/7 activation at […] measured after 48 hrs by CellEvent caspase 3/7 green detection reagent/Hoechst 33342 staining based imaging analysis relative to control; assay type: functional
[14] = target: T1, Class 1 histone deacetylase; experiment: Inhibition of class 1 HDAC in human Cal27CisR cells assessed as increase in histone H3 acetylation at […] measured after 24 hrs by immunoblot analysis; assay type: cell-based
[15] = target: T1, Class 1 histone deacetylase; experiment: Inhibition of class 1 HDAC in human CAL27 cells assessed as potentiation of cisplatin-induced cytotoxicity by measuring cisplatin IC50 at […] preincubated for 48 hrs followed by cisplatin addition and measured after 72 hrs by MTT assay (reference value: 9.79 uM); assay type: cell-based; details: cal-27
[16] = target: T1, Class 1 histone deacetylase; experiment: Inhibition of class 1 HDAC in human CAL27 cells assessed as potentiation of cisplatin-induced apoptosis assessed as increase in caspase-3/7 activation at […] preincubated for 48 hrs followed by cisplatin addition and measured after 24 hrs by CellEvent caspase 3/7 green detection reagent/Hoechst 33342 staining based imaging analysis; assay type: cell-based; details: CAL-27

T1 sequence (O15379 whole entry, looked up): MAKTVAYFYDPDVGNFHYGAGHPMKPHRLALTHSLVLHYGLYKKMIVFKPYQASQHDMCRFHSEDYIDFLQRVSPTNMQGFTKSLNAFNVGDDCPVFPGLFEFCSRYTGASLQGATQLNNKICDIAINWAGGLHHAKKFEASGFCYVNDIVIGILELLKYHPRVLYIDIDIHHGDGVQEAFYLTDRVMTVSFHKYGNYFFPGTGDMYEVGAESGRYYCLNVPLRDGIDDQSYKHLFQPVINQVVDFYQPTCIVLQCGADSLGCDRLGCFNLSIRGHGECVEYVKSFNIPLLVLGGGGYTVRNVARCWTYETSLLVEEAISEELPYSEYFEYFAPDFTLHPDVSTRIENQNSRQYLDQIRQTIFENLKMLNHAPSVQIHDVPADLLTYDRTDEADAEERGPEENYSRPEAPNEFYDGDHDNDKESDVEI
T1 sequence (Q13547 whole entry, looked up): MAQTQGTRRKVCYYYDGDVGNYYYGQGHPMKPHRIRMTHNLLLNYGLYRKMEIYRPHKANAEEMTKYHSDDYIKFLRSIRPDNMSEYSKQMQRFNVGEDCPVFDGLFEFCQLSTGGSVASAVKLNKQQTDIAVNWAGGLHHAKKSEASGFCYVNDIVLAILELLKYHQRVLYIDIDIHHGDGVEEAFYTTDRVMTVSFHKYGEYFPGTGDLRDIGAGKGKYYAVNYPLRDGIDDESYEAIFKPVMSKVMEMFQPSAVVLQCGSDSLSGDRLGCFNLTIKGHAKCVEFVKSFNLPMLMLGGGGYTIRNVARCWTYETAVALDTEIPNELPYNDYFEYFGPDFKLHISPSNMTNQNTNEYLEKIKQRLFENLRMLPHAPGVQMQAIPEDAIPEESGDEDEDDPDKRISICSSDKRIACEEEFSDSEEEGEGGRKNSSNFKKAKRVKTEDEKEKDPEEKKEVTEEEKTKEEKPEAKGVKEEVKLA
T1 sequence (Q92769 whole entry, looked up): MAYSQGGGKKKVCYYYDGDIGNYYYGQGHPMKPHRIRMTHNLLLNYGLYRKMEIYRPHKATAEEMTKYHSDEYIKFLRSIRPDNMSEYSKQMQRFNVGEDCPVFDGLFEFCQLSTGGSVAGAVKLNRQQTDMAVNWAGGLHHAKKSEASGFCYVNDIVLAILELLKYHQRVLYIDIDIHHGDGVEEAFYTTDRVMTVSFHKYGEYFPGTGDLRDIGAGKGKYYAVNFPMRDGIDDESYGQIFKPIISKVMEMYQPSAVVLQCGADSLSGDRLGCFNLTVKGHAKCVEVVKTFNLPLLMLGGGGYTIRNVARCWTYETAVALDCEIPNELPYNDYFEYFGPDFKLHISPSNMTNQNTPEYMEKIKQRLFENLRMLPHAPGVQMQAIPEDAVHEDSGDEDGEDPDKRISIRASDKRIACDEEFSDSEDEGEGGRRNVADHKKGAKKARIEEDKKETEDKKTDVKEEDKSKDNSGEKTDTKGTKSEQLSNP
T1 sequence (Q9BY41 whole entry, looked up): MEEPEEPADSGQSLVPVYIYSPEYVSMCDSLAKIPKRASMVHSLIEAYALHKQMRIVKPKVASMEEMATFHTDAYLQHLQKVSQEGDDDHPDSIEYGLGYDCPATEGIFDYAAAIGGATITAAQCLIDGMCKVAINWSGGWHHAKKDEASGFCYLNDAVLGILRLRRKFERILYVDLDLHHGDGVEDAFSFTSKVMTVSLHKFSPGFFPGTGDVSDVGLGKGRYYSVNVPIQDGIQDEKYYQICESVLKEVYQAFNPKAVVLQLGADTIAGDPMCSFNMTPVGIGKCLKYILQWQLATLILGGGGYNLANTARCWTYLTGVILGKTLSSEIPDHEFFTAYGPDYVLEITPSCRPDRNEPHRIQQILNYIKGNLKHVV
Sequence of Histone deacetylase 2 (Q92769 whole entry): as the sequence (Q92769 whole entry, looked up) above

Compound `CN(C)c1ccc(C(=O)N(CC(=O)NCc2ccccc2)Cc2ccc(C(=O)Nc3ccccc3N)cc2)cc1` has an IC50 [1] of 8.42 µM, a CI [2] of 0.11 and a CI [3] of 0.91. For the same compound, the CI [4] was < 0.2.

`Cc1cc(C)cc(C(=O)N(CCCCCC(=O)Nc2cc(-c3ccccc3)ccc2N)CC(=O)NCc2ccccc2)c1` was tested, and the Ratio IC50 [5] was 4.03, the CI [6] was 0.1 and the CI [7] was < 0.2. For the same compound, the CI [8] was < 0.2, the inhibition [9] was “Active” and the inhibition [10] was “inactive”. For the same compound, the inhibition [11] was “Active”.

In the case of `Cc1cc(C)cc(C(=O)N(CC(=O)NCc2ccccc2)Cc2ccc(C(=O)Nc3cc(-c4ccccc4)ccc3N)cc2)c1`, the inhibition (Histone deacetylase 2) is reported as 34%, the Activity (A2780) is reported as “inactive” and the inhibition [12] is reported as “Active”. For the same compound, the inhibition [13] was “Active”, the Activity (CAL-27) was 9.47% and the inhibition [14] was “Active”. For the same compound, the IC50 [15] was 1.86 µM and the inhibition [16] was “Active”.
